Assay results taken from patent publication US9321742B2, “N1-cyclic amine-N5-substituted biguanide derivatives, methods of preparing the same and pharmaceutical composition comprising the same” (IMMUNOMET THERAPEUTICS INC., priority 2011, dated 2016).

Key:
AMPKα = assay: Measurement of AMPK-activation effect (AMPKα Thr172 phosphorylation immunoassay in MCF7 cells); format: cell-based, human; details: 24 hours; for AMPK activation effect 10 uM (%) / AMPK activation effect 50 uM (%): relative to untreated cells
Procedure: MCF7 cells derived from human breast cancer cells (commercially available from the Korean Cell Line Bank) were used, and the AMPK (5′-AMP-activated protein kinase alpha)-activation effect of the biguanide derivative was confirmed using an AMPKα immunoassay kit (Invitrogen, Catalog No. KH00651).
MCF7 cells were cultured in a DMEM medium supplemented with 10% fetal bovine serum. Thereafter, the cultured MCF7 cells were put into a 6-well plate with approximately 5×10^5 cells per well and cultured in an incubator supplied with 5% CO2. Culture media were treated with the derivatives synthesized in the examples at contents of 5, 10 and 50 μM, and then cultured for 24 hours. Metformin hydrochloride was used as the control, and the culture media were treated with 0.05, 0.5, 1, 2, 5 and 10 mM metformin hydrochloride, and then tested in the same manner as described in the derivatives synthesized in the examples. Subsequently, the cells were lysed according to a method presented in the operation manual of the AMPKα immunoassay kit, and 20 μg of a cell lysate was then yielded through protein assay. Thereafter, the AMPK activation effect was obtained by determining the degree of phosphorylation of 172nd threonine residue (Thr172) of the AMPKα from the cell lysate according to the method presented in the operation manual of the AMPKα immunoassay kit. […] A curve graph showing AMPK activation according to the concentration of the treated compounds was plotted based on the obtained AMPKα activation results, the concentration (activation concentration 150, AC150) value of the compound whose AMPK activation reached 150% was calculated using a GraphPad Prism 5.0 program, and the degrees of AMPK activation were obtained when concentrations of the treated biguanide derivatives were 10 μM and 50 μM and the metformin hydrochloride was 50 μM.

HCT116 cells = assay: Measurement of effect of inhibiting cancer cell proliferation (MTT); format: cell-based; details: Homo sapiens; for inhibition at 100 µM: HCT-116, 100 uM, 48 hours, read-out: Cell Growth Inhibition (%) at 100 uM; for GI50: HCT-116, 48 hours
From the text: HCT116 cells derived from human colorectal cancer (commercially available from the Korean Cell Line Bank) were used, and the effect of inhibiting cancer cell proliferation of the biguanide derivative was confirmed by measuring the concentration value (cell growth inhibition concentration, GIC50) at which cell growth was inhibited by 50% using a 3-(4,5-dimethylthiazol-2-yl)-2,5-[…] bromide (MTT) reagent.
First, HCT116 cells were put on a 96-well plate and cultured in a DMEM medium containing 10% fetal bovine serum for 16 hours so that the cellcount in each well was approximately 5,000. Subsequently, to obtain the GIC50 value of each compound, culture media were treated with 100 μM, 25 μM, 6.25 μM, 1.56 μM or 0.39 μM of the compound, and then cultured for 48 hours. At this time, some of the compounds were treated with 200 μM instead of 100 μM. Metformin hydrochloride was used as the control, and the culture media were treated with 25, 12.5, 2.5, 0.5, 0.1 mM metformin hydrochloride, and then tested in the same manner as described in the derivatives synthesized in the examples. In order to determine whether the cells survived after treatment with the compound, MTT was added to the culture media which were then cultured for another 3 hours. Formed formazane crystals were dissolved using dimethyl sulfoxide (DMSO), and the absorbance of the resulting solution was measured at 560 nm. After the 48-hours culture, the ratio of the cell count cultured on a well plate not treated with the compound to the living cell count on a well plate treated with the compounds synthesized in the examples was indicated as cell viability (%) according to each treated concentration. A cell viability curve graph was plotted and the concentration (GIC50) value of the compound at which the growth was inhibited by 50% was calculated to confirm the effect of inhibition of cancer cell proliferation. Also, the cell growth viability (%) when the concentration of the treated biguanide derivative and the metformin hydrochloride as the control were 100 uM was shown.

Compound | GI50 (HCT116 cells) [µM] | melting point [°C] | AMPK activation effect 10 uM (%) (AMPKα) | AMPK activation effect 50 uM (%) (AMPKα) | AC150 (concentration at which AMPK activation reached 150%) (AMPKα) [µM] | inhibition at 100 µM (HCT116 cells) [%]
Cl.N=C(NC(=N)N1CCCCCC1)NC1CCCC1 [Example 15, N1-azepane-N5-cyclopentyl biguanide hydrochloride] | > 100 | 224 to 225 | 174 | 291 | 7.0 | 27.9
Cl.N=C(NCc1ccc(F)c(F)c1)NC(=N)N1CCCCC1 [Example 52, N1-piperidine-N5-(3,4-difluoro)benzyl biguanide hydrochloride] | 76.4 | 230 to 232 | 327 | 703 | 3.8 | 46.5
Cl.N=C(NCc1ccc(Cl)c(Cl)c1)NC(=N)N1CCCC1 [Example 54, N1-pyrrolidine-N5-(3,4-dichloro)benzyl biguanide hydrochloride] | 21.1 | 219 to 221 | 315 | – | 0.8 | 98
Cl.N=C(NCc1ccc(Cl)cc1)NC(=N)N1CCCCCC1 [Example 33, N1-azepane-N5-(4-chloro)benzyl biguanide hydrochloride] | 4.9 | 222 to 223 | – | 443 | 1.2 | 25.3
Cl.N=C(NCc1ccc(OC(F)(F)F)cc1)NC(=N)N1CCCC1 [Example 41, N1-pyrrolidine-N5-(4-trifluoromethoxy)benzyl biguanide hydrochloride] | 25.6 | 242 to 243 | 242 | 698 | 0.9 | 97.4
Cl.N=C(NC(=N)N1CCCCC1)NC1CCCC1 [Example 14, N1-piperidine-N5-cyclopentyl biguanide hydrochloride] | > 100 | 154 to 155 | 114 | 157 | 38.3 | 30.4
Cl.N=C(NCc1cccc(C(F)(F)F)c1)NC(=N)N1CCCCC1 [Example 7, N1-piperidine-N5-(3-trifluoromethyl)benzyl biguanide hydrochloride] | 17.2 | 259 to 260 | 582 | 677 | 1.0 | 97.4
Cl.N=C(NC(=N)N1CCCCC1)NC1CCCCCC1 [Example 18, N1-piperidine-N5-cycloheptyl biguanide hydrochloride] | 23.1 | 237 to 238 | 304 | 719 | 2.2 | 64.3

Second part, led by results:

GI50 (HCT116 cells) [µM] | melting point [°C] | Compound | AMPK activation effect 10 uM (%) (AMPKα) | AMPK activation effect 50 uM (%) (AMPKα) | AC150 (concentration at which AMPK activation reached 150%) (AMPKα) [µM] | inhibition at 100 µM (HCT116 cells) [%]
21.9 | 211 to 213 | Cl.N=C(NCCc1ccccc1)NC(=N)N1CCCCCC1 [Example 59, N1-azepane-N5-(phenethyl)biguanide hydrochloride] | 194 | 373 | 0.7 | 56.6
> 100 | 113 to 114 | CCCCNC(=N)NC(=N)N1CCCCC1.Cl [Example 11, N1-piperidine-N5-butyl biguanide hydrochloride] | – | 130 | >50 | 42.7
> 100 | 213 to 214 | COc1ccc(CNC(=N)NC(=N)N2CCCCC2)cc1.Cl [Example 28, N1-piperidine-N5-(4-methoxy)benzyl biguanide hydrochloride] | 258 | 628 | 3.9 | 28.3
